Data reported in patent US20040040047A1 (priority 1998, published 2004).
Blank lines part the entries; values can stand above or below the compound they belong to.

Legend:
Fv2-casp-3 [1] = biological target: T1, Fv2-casp-3 (Homo sapiens, UniProt P62942, F37V); experiment: Western blot of processing and degradation of Fv2-casp-3 in Jurkat cells; assay type: cell-based
T1 construct: caspase-3 (same polypeptide); expressed in transfected cells; host or cells: Jurkat TAg
Description: Jurkat TAg cells were electroporated with 2 μg of plasmid, cultured 36 hours, and stimulated with drug for the indicated time period. Approximately 5×10^5 cells were lysed in 100 μl RIPA buffer (0.01M TrisHCl pH 8.0, 140 mM NaCl, 1% Triton X-100, 1 mM phenylmethylsulfonyl fluoride, 1% sodium deoxycholate, 0.1% SDS) on ice for 30 minutes. Cell debris were pelleted and supernatants were boiled in 1:1 Laemmli sample buffer (with 5% β-ME) for 5 minutes. […] Membranes were incubated with monoclonal anti-HA epitope antibody, HA.11 (BABCO) followed by polyclonal HRP-conjugated goat anti-mouse antibody (Bio-Rad). Bands were detected with SuperSignal-Chemiluminescent Substrate (Pierce).
Processing of caspase-3, and other caspases, ordinarily involves two or more cleavages after aspartic acid residues. To confirm that the CID-mediated diminution of reporter activity was caused by activation of the conditional caspases, the processing and degradation of conditional caspase-3 was directly examined. Jurkat cells were transfected 2 μg Fv2-casp-3 or Fv2-casp-3/S163. […] Following these incubations, cell extracts were analyzed by western blotting using monoclonal antibodies to an epitope tag (HA) placed at both ends of the construct.
The breakdown products of caspase-3 activation were not seen even though epitope tags were present at both ends of the protein. […] Therefore, homomultimerization of the caspases, caspase-1 and caspase-3, is sufficient for their activation.

conditional YAMA = biological target: T2, conditional YAMA (Homo sapiens, UniProt P62942, F37V); experiment: Luciferase survival assay, BPH-derived smooth muscle cells (JD, CR-2a) transfected with conditional YAMA; assay type: cell-based
T2 construct: caspase-3 / YAMA (same polypeptide); expressed in transfected cells; host or cells: JD and CR-2a (smooth muscle cell lines from BPH patients)
T2 sequence (P62942 2-108 F37V): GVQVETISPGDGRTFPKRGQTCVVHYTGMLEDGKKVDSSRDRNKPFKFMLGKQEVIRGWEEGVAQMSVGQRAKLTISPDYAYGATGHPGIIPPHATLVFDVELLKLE
T2 sequence (P42574 2-277 partner limits assumed): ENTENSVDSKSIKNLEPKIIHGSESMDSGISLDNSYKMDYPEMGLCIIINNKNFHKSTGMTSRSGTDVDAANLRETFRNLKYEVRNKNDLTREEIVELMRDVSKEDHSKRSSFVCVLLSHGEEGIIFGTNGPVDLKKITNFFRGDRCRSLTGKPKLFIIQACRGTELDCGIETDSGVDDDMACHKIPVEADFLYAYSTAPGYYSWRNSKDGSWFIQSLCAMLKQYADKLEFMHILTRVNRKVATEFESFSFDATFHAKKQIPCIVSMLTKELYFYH
From the text: (§1) Conditional Fas, YAMA and a YAMA construct containing a single, inactivating point mutation were cotransfected with a luciferase reporter plasmid (pGL2) into JD and CR-2a cell lines. These are smooth muscle cell lines derived from prostate tissue samples taken from patients with BPH. […] Cells were then lysed and assayed for luciferase activity as a marker of cell survival.
(§2) It is worth noting that a conditional Fas-based treatment for BPH is not possible since the Fas construct was not effective in causing apoptosis in BPH derived cell lines. It is quite likely that Fas-based methods will be ineffective in many other cell types, thus severely limiting the utility of this approach.

inactivated YAMA = biological target: T3, inactivated YAMA (Homo sapiens, UniProt P42574+P62942, C163S/F37V); experiment: Luciferase survival assay, BPH-derived smooth muscle cells transfected with inactivated YAMA; assay type: cell-based; conditions: with or without AP1903, 24 hours
T3 construct: caspase-3 C163S (same polypeptide); expressed in transfected cells; host or cells: JD and CR-2a (smooth muscle cell lines from BPH patients)
From the text: as §1, §2

JD-2a cells = experiment: Fluorescent microscopy of JD-2a cells infected with Adv-Fv1-YAMA; assay type: cell-based, human; conditions: Adv-Fv1-YAMA MOI ~25, 50 nM AP1903 for 24 hours
Description: Replication deficient (ΔE1) adenoviral vectors expressing green flourescent protein and conditional Caspase 1 (ICE) or Caspase 3 (YAMA) were engineered. These vectors independently express green fluorescent protein so that infected cells are easily identified by their green color under fluorescent microscopy.
40,000 JD-2a cells per well were plated in 24-well plates and infected at a multiplicity-of-infection (MOI) of ˜25 with Adv-Fv1-YAMA, an adenoviral vector expressing CID-regulated YAMA. […] All of the cells incubated with virus and maintained in control media appeared green, and were clearly attached and viable, similar to non-fluorescent non-infected JD-2a cells (FIG. 47b).

Fv2-casp-3/S163 = biological target: T4, Fv2-casp-3/S163 (Homo sapiens, UniProt P42574+P62942, C163S/F37V); experiment: SEAP reporter assay, Jurkat TAg cells transfected with inactive Fv2-casp-3/S163; assay type: cell-based; conditions: 100 nM AP1903, enzymatically inactive caspase-3
T4 construct: caspase-3 C163S (same polypeptide); expressed in transfected cells; host or cells: Jurkat TAg
Description: Jurkat TAg cells (10^7) in log phase growth were electroporated (950 μF, 250V; Gene Pulser II) with expression plasmid and 1-2 μg SRα-SEAP. After 24 hours, transformed cells were stimulated with CID or anti-Fas antibody (CH.11, Kamiya Biomedical). After an additional 20 hours, supernatants were assayed for SEAP activity as described previously (15). Units of SEAP activity are reported directly and as a percentage of activity relative to no stimulation within the same transfections (% Relative Activity).
In contrast to caspase-1 and Fas, conditional caspase-3 alleles are not apparently autotoxic (FIGS. 7-9). With reference to FIGS. 7 and 8, Jurkat TAg cells were transiently-transfected with: 2 μg Fv2-casp-3 (open squares), or 2 μg Fv2-casp-3/S163 (closed squares). With reference to FIG. 9, Jurkat TAg cells were transfected with: 2 μg Fpk3-casp-3/S163 (closed triangles), 2 μg Fpk3-casp-3 (open squares), or 2 μg Fpk3-Δ20casp-3 (closed squares). After 20 hours, transfected cells were treated and analyzed as before. Data is representative of at least three independent experiments performed in duplicate.

conditional Fas = biological target: T5, conditional Fas (Homo sapiens, UniProt P62942, F37V); experiment: Luciferase survival assay, BPH-derived smooth muscle cells transfected with conditional Fas; assay type: cell-based; conditions: with or without AP1903, 24 hours
T5 construct: Fas cytoplasmic portion (same polypeptide); expressed in transfected cells; host or cells: JD and CR-2a (smooth muscle cell lines from BPH patients)
T5 sequence (P62942 2-108 F37V): as the sequence (P62942 2-108 F37V) above
T5 sequence (P25445 191-335 partner limits assumed): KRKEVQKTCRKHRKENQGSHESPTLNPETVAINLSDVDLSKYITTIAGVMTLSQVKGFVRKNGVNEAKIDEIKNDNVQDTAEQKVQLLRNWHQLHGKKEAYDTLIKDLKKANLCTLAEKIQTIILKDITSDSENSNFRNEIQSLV
From the text: as §1, §2

Fv2-casp-3 [2] = biological target: T1, Fv2-casp-3; experiment: SEAP reporter assay, Jurkat TAg cells transfected with Fv2-casp-3; assay type: cell-based; conditions: 2 μg Fv2-casp-3, Jurkat TAg, in the presence of AP1903
[3] = test system: tumor cell types expressing herpes virus tk; conditions: cited from earlier work
RM-1 cells = conditions: single treatment with adenovirus expressing HSV-tk and ganciclovir; cited from earlier work
S-Fv2-Casp1 = biological target: T6, S-Fv2-Casp1 (Homo sapiens, UniProt P62942, F37V); experiment: SEAP reporter assay, Jurkat TAg cells, S-Fv2-Casp1; assay type: cell-based; conditions: caspase-1 fused to two Fvs, no linker
T6 construct: caspase-1 (same polypeptide); expressed in transfected cells; host or cells: Jurkat TAg
T6 sequence (P62942 2-108 F37V): as the sequence (P62942 2-108 F37V) above
T6 sequence (P29466 2-404 partner limits assumed): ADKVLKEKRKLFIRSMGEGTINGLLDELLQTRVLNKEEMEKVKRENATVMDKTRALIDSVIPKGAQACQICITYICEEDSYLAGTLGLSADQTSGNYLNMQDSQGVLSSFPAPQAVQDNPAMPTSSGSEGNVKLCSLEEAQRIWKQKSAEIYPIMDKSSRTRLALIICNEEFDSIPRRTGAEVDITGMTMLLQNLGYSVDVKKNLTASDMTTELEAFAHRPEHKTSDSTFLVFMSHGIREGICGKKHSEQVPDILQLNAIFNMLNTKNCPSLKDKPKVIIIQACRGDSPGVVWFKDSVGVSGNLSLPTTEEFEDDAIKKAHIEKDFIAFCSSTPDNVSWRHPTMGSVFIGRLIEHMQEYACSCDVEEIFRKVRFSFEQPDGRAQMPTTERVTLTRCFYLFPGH
Description: (§3) Jurkat TAg cells (10^7) in log phase growth were electroporated (950 μF, 250 V) with expression plasmid and 2 μg SRα-SEAP. […] Units of SEAP activity are reported directly and as a percentage of activity relative to no stimulation (“% Relative SEAP activity”). All experiments were repeated at least three times and representative experiments performed with duplicate samples are shown.

FKBP12V36 (Fv) = FKBP12V36 (Fv) (Homo sapiens, UniProt P62942, F37V); experiment: CID binding to mutant FKBP12 (F36V, Fv); conditions: relative to AP1903
Chain of FKBP12V36 (Fv) (P62942 whole entry F37V): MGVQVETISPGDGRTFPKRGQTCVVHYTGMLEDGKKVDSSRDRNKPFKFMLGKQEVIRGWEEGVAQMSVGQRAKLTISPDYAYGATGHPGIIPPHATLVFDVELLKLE

S-Fv3-Casp3 = biological target: T7, S-Fv3-Casp3 (Homo sapiens, UniProt P62942, F37V); experiment: SEAP reporter assay, Jurkat TAg cells, S-Fv3-Casp3; assay type: cell-based; conditions: construct containing three Fvs; read-out: IC50 (decrease in SEAP activity)
T7 construct: caspase-3 (same polypeptide); expressed in transfected cells; host or cells: Jurkat TAg
T7 sequence (P62942 2-108 F37V): as the sequence (P62942 2-108 F37V) above
T7 sequence (P42574 2-277 partner limits assumed): as the sequence (P42574 2-277 partner limits assumed) above
Description: as §3

T1 sequence (P62942 2-108 F37V): as the sequence (P62942 2-108 F37V) above

time to full degradation of Fv2-casp-3 (Fv2-casp-3 [1]; 100 nM AP1903): four
time to complete degradation of full-length caspase-3 (Fv2-casp-3 [1]; 500 nM AP1903): ≤ 2 h
concentration sufficient to cause the processing and degradation of the majority of Fv2-casp-3 (Fv2-casp-3 [1]; treated for eight hours, half-log dilutions): 10 nM
reduction of reporter activity (Fv2-casp-3/S163): could not reduce reporter activity
reduction in reporter activity (Fv2-casp-3 [2]): ≈ 65%
Compound: CC[C@H](C(=O)N1CCCC[C@H]1C(=O)O[C@H](CCc1ccc(OC)c(OC)c1)c1cccc(OCC(=O)NCCNC(=O)COc2cccc([C@@H](CCc3ccc(OC)c(OC)c3)OC(=O)[C@@H]3CCCCN3C(=O)[C@@H](CC)c3cc(OC)c(OC)c(OC)c3)c2)c1)c1cc(OC)c(OC)c(OC)c1 [AP1903]
reduction in reporter activity (conditional YAMA; 100 μM AP1903 for 24 hours): 82%
luciferase activity (conditional YAMA; treated with 100 μM AP1903 for 24 hours, 668±67 without AP1903): 119±13
reduction in the percentage of surviving cells (inactivated YAMA): no significant reduction
cells either dead or in the process of undergoing apoptosis (JD-2a cells): > 99%
reduction in the percentage of surviving cells (conditional Fas): no significant reduction

Compound: Nc1nc(O)c2ncn(COC(CO)CO)c2n1 [ganciclovir]
dose up to which the cell line was essentially immune ([3]; ESB cell line): up to 1 μg/mL
time necessary to effect a substantial amount of cell death ([3]; high doses of ganciclovir): 6 to 22 days
reduction in lung colonization (RM-1 cells): 40%

Compound: FK1012
IC50 (S-Fv2-Casp1): 1 nM
lower affinity of FK1012 for Fv versus AP1903 (FKBP12V36 (Fv)): ten-fold
IC50 (S-Fv3-Casp3): ~20 nM
